Measured values as given in patent publication EP1900728A1 (Genecare Research Institute Co., Ltd, priority 2005, dated 2006).
Like-named read-outs stand apart in the source and are kept apart here.

Experiments:
[1] = test system: ICAM-1 expression in HT-29 cells; assay: Measurement of ICAM-1 expressing activity (TNFα-induced ICAM-1 expression, cell ELISA); type: cell-based; details: Homo sapiens, Table 6, cell activity inhibition test by method (3), read-out: EVALUATION (IC50 class, inhibition of cell activity)
Summary of the method: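 HT-29 cells pretreated with compound (0.5% DMSO final) for 30 min at 37°C, then stimulated with 30 ng/mL human TNFα for 4 h. Surface ICAM-1 measured by cell ELISA on methanol-fixed cells: anti-ICAM-1 plus POD secondary, TMBZ substrate, absorbance at 450 nm.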

[2] = target: T1, IκBα ubiquitinating enzyme (SCF complex: ROC1, Cullin1, Skp1, His-TrCP1; with E1, UbcH5b) (Homo sapiens, UniProt P62877+P63208+Q13616+Q9Y297); assay: Measurement of ubiquitinating enzyme activity (IκBα ubiquitination, time-resolved fluorescence with Eu(K)-labeled ubiquitin and XL665-labeled anti-GST antibody); type: biochemical
T1 construct: His (polyhistidine); made in house; host or cells: insect cells (baculovirus) for the SCF complex and His-E1; E. coli for His-UBCH5b
T1 sequence (Q9Y297 whole entry): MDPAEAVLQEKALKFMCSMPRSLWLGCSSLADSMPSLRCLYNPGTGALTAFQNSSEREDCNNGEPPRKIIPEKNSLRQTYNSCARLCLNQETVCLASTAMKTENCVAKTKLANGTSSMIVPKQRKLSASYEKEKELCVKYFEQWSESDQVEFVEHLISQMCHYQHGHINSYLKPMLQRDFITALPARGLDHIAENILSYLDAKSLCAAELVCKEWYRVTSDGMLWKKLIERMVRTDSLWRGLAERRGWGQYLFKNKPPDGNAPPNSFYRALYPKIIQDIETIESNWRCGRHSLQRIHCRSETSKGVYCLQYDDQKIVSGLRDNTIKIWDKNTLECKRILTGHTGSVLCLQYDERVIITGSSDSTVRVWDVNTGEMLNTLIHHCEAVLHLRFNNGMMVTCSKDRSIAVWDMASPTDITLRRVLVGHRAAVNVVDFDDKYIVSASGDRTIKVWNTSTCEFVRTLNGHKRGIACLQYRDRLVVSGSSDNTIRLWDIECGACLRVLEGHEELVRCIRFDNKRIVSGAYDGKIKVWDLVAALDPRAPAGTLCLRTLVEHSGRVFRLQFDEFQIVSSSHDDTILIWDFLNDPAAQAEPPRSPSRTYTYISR
T1 sequence (Q13616 whole entry): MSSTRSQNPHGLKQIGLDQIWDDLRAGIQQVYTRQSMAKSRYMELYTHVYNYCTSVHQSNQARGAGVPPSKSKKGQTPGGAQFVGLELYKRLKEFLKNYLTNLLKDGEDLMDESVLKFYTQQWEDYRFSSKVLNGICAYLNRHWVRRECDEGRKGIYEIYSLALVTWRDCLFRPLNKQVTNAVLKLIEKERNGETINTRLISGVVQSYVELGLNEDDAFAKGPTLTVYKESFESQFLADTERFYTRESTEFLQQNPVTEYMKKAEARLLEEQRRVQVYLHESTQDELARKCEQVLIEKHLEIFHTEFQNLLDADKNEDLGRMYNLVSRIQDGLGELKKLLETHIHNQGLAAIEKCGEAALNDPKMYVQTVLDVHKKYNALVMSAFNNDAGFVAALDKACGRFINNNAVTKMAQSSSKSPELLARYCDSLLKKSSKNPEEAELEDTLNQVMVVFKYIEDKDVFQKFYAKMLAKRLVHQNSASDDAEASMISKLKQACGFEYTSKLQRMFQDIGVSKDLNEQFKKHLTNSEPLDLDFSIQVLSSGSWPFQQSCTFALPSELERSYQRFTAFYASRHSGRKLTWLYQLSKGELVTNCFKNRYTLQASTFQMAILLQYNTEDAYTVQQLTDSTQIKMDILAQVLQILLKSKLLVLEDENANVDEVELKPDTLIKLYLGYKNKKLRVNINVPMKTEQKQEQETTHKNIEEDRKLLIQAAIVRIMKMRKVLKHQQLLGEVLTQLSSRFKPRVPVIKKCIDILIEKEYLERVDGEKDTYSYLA
T1 sequence (P63208 whole entry): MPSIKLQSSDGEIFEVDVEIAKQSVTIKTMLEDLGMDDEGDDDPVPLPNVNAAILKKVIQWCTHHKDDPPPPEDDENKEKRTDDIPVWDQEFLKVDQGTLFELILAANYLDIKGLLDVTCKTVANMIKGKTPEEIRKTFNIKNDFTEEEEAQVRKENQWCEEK
T1 sequence (P62877 whole entry): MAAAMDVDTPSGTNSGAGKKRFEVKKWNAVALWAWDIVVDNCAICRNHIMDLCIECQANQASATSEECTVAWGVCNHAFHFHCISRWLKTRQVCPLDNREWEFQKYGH
Summary of the method: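 Human SCF complex with E1 and UbcH5b ubiquitinated GST-IκBα pre-phosphorylated by IKKβ (2 mM ATP, pH 7.4, 1 h, RT), with Eu(K)-ubiquitin, 30 min RT. Stopped with EDTA, XL665 anti-GST added for 2 h; 665/620 nm TR-FRET ratio. % inhibition versus no-compound control and no-SCF blank gave IC50.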

[3] = enzyme activity inhibition test, method (1), Table 5, read-out: EVALUATION

Compound `COC(=O)N1CCN(c2ccc(/C=C3\C(=O)N(c4ccccc4)N=C3c3ccoc3)cc2)CC1` [Compound 14] has an IC50 [1] of less than 40 µM and an IC50 [2, 3] of less than 10 µM.

Compound `CC(=O)c1ccc(-c2ccc(/C=C3\C(=O)N(c4ccc(C(=O)O)cc4)N=C3C)o2)cc1` [Compound 502] has an IC50 [1] of less than 10 µM and an IC50 [2, 3] of less than 10 µM.

`CC(=O)c1ccc(-c2ccc(/C=C3\C(=O)N(c4cccc(C(=O)O)c4)N=C3C)o2)cc1` [Compound 504] was tested, and the IC50 [1] was 10 to 20 µM and the IC50 [2, 3] was 10 to 20 µM.

With `O=C(O)c1cccc(N2N=C(c3ccoc3)/C(=C/c3ccc(-c4ccccc4F)o3)C2=O)c1` [Compound 484] the IC50 [1] was 10 to 20 µM and the IC50 [2, 3] was less than 10 µM.

Compound `O=C(O)c1cccc(N2N=C(c3ccoc3)C(=Cc3ccc4[nH]ccc4c3)C2=O)c1` [Compound 475, 3-(3-Furan-3-yl-4-(1H-indol-ylmethylene)-5-oxo-4,5-dihydropyrazol-1-yl) benzoic acid] has an IC50 [1] of 10 to 20 µM and an IC50 ([2]; read-out: EVALUATION, enzyme activity inhibition test, method (1), Table 5) of less than 10 µM.

`CC1=NN(c2ccc(S(N)(=O)=O)cc2)C(=O)/C1=C\c1ccc(NC(=O)/C=C/c2ccccc2)cc1` [Compound 230] gave an IC50 [1] of less than 40 µM and an IC50 [2, 3] of less than 10 µM.

Compound `COCC1=NN(c2ccc(C(=O)O)cc2)C(=O)/C1=C\c1ccc(-n2cccn2)cc1` [Compound 242] has an IC50 [1] of 10 to 20 µM and an IC50 [2, 3] of less than 10 µM.

In the case of `CCCCC1=NN(c2ccccc2)C(=O)/C1=C\c1ccc(N2CCN(C(=O)OC)CC2)cc1` [Compound 54], the IC50 [1] is reported as less than 40 µM and the IC50 [2, 3] is reported as 10 to 20 µM.

For `O=C(O)c1ccc(N2N=C(c3ccccn3)/C(=C/c3ccc(N4CCCC4)cc3)C2=O)cc1` [Compound 291], the IC50 [1] was 10 to 20 µM and the IC50 [2, 3] was 10 to 20 µM.

In the case of `CC1=NN(c2ccc(C(=O)O)cc2)C(=O)/C1=C\c1ccc(-c2cccc(Cl)c2)o1` [Compound 454], the IC50 [1] is reported as less than 40 µM and the IC50 [2, 3] is reported as less than 10 µM.

For `CCCCC1=NN(c2ccc(C(=O)O)cc2)C(=O)/C1=C\c1ccc2[nH]ccc2c1` [Compound 474], the IC50 [1] was less than 40 µM and the IC50 [2, 3] was less than 10 µM.

Work on `CC1=NN(c2ccc(S(N)(=O)=O)cc2)C(=O)/C1=C\c1ccc2c(c1)OCCO2` [Compound 108] yielded an IC50 [1] of less than 40 µM and an IC50 [2, 3] of 10 to 20 µM.

`CC1=NN(c2ccc(C(=O)N3CCC(O)C3)cc2)C(=O)/C1=C\c1ccc2c(c1)OCCO2` (centres unmarked) [Compound 413] was tested, and the IC50 [1] was 10 to 20 µM and the IC50 [2, 3] was less than 10 µM.

Compound `CC1=NN(c2ccc(S(N)(=O)=O)cc2)C(=O)C1=Cc1ccc(NC(=O)c2ccc3ccccc3c2)cc1` [Compound 227] has an IC50 [1] of 10 to 20 µM and an IC50 [2] of less than 10 µM.

`O=C(O)c1ccc(N2N=C(c3ccoc3)/C(=C/c3ccc4[nH]ccc4c3)C2=O)cc1` [Compound 477] was tested, and the IC50 [1] was less than 40 µM and the IC50 [2, 3] was less than 10 µM.

In the case of `CC1=NN(c2ccc(C(=O)O)cc2)C(=O)C1=Cc1ccc(OCCCN(C)C)cc1` [Compound 543], the IC50 [1] is reported as less than 10 µM and the IC50 [2] is reported as less than 10 µM.

`O=C(O)c1ccc(N2N=C(c3ccoc3)/C(=C/c3ccc(-c4ccccc4F)o3)C2=O)cc1` [Compound 246] gave an IC50 [1] of less than 10 µM and an IC50 [2, 3] of less than 10 µM.

With `CC1=NN(Cc2cccc(O)c2)C(=O)/C1=C\c1ccc(-c2ccccc2F)o1` [Compound 185] the IC50 [1] was 10 to 20 µM and the IC50 [2, 3] was less than 10 µM.

Compound `CC1=NN(c2cccc(C(=O)O)c2)C(=O)/C1=C\c1ccc(N2CCCC2)cc1` [Compound 472] has an IC50 [1] of 10 to 20 µM and an IC50 [2, 3] of 10 to 20 µM.

For `O=C(O)c1ccc(N2N=C(C3CC3)/C(=C/c3ccc4[nH]ccc4c3)C2=O)cc1` [Compound 482], the IC50 [1] was less than 40 µM and the IC50 [2, 3] was less than 10 µM.

Compound `COC(=O)N1CCN(c2ccc(/C=C3\C(=O)N(c4ccc(C(=O)O)cc4)N=C3Cc3ccccc3)cc2)CC1` [Compound 266] has an IC50 [1] of 10 to 20 µM and an IC50 [2, 3] of less than 10 µM.

`COc1cc(/C=C2\C(=O)N(c3ccc(C(=O)O)cc3)N=C2C2CC2)ccc1O` [Compound 312] gave an IC50 [1] of less than 40 µM and an IC50 [2, 3] of less than 10 µM.

`COC(=O)N1CCN(c2ccc(C=C3C(=O)N(c4ccc(C(=O)O)cc4)N=C3C3CC3)cc2)CC1` [Compound 315] showed an IC50 [1] of less than 10 µM and an IC50 [2] of less than 10 µM.

Compound `CC1=NN(c2ccc(C(=O)O)cc2)C(=O)/C1=C\c1ccc(OCC(=O)Nc2ccccc2)cc1` [Compound 537] has an IC50 [1] of less than 40 µM and an IC50 [2, 3] of less than 10 µM.

For `CC1=NN(c2ccc(C(=O)O)cc2)C(=O)/C1=C\c1cc2ccccc2o1` [Compound 429], the IC50 [1] was less than 40 µM and the IC50 [2, 3] was less than 10 µM.
